One may read the MIC as the smallest concentration in the dilution series that meets the test's criterion for growth inhibition.

The values that follow come from patent US20250328351A1, “CARBONIC ANHYDRASE INHIBITORS AND ANTIBIOTICS AGAINST MULTIDRUG RESISTANT BACTERIA” (Purdue Research Foundation, priority 2018, published 2025).

Data set [1] has as its system Caco-2 cells. Nature of the data set: In vitro cytotoxicity, MTS assay. The conditions noted are these: concentration up to 128 μg/mL; two hours incubation. As to the method:
Method: Compounds AS005H, AS005J, AS004B, AS005K, AS005A and 005D were assayed (at concentrations of 64 and 128 μg/mL) against a human colorectal adenocarcinoma (Caco-2) cell to determine the potential toxic effect to mammalian cells in vitro. Briefly, cells were cultured in Dulbecco's Modified Eagle Medium (DMEM) supplemented with 20% fetal bovine serum (FBS), non-essential amino acids (1×), penicillin-streptomycin at 37° C. with CO2 (5%). Control cells received DMSO alone at a concentration equal to that in drug-treated cell samples. The cells were incubated with the compounds (in triplicate) in a 96-well plate at 37° C. with CO2 (5%) for two hours. The assay reagent MTS 3-(4,5-dimethylthiazol-2-yl)-5-(3-carboxymethoxyphenyl)-2-(4-sulfophenyl)-2H-tetrazolium) (Promega, Madison, WI, USA) was subsequently added and the plate was incubated for four hours. Absorbance readings (at OD490) were taken using a kinetic microplate reader (Molecular Devices, Sunnyvale, CA, USA). The quantity of viable cells after treatment with each compound was expressed as a percentage of the viability of DMSO-treated control cells (average of triplicate wells±standard deviation). The toxicity data was analyzed via a two-way ANOVA, with post hoc Dunnet's multiple comparisons test (P<0.05), utilizing GraphPad Prism 6.0 (GraphPad Software, La Jolla, CA).
Percent viable mammalian cells (measured as average absorbance ratio (test agent relative to DMSO) for cytotoxicity analysis of AS005H, AS005J, AS004B, AS005K, AS005A and 005D compounds (tested in triplicate) at 64 and 128 μg/mL against Caco-2 cells using the MTS 3-(4,5-dimethylthiazol-2-yl)-5-(3-carboxymethoxyphenyl)-2-(4-sulfophenyl)-2H-tetrazolium) assay. Dimethyl sulfoxide (DMSO) was used as a negative control to determine a baseline measurement for the cytotoxic impact of each compound. The absorbance values represent an average of a minimum of three samples analyzed for each compound. Error bars represent standard deviation values for the absorbance values. A two-way ANOVA, with post hoc Dunnet's multiple comparisons test, determined statistical difference (denoted by the asterisk) (P<0.05) between the values obtained for each compound and DMSO (negative control, used as solvent for the compounds).
(In general: Tetrazolium assays rely on reduction of a dye to a coloured formazan, in cell work by metabolically active cells.)

Data set [2] has as its system Bacteroides fragilis CL07T00C01 HM-709. Description: MIC against human normal gut microbiota. The data set is classed as cell-based. The conditions noted are these: Table 3, BHIS broth, anaerobic, 48 hours, read-out: MIC. The protocol: (§1) Three different bacterial strains were used in this experiment; Bifidobacterium (anaerobic Gram positive bacteria), Bacteroides (anaerobic Gram negative bacteria) and Lactobacillus (microaerophilic Gram positive bacteria). Bifidobacterium and Bacteroides were first grown for 48 hours at 37° C., anaerobically using brain heart infusion supplemented (BHIS) agar (Brain heart infusion agar supplemented with hemin, vitamin K and L-cysteine). Lactobacillus was cultivated on MRS agar and incubated in presence of 5% CO2 for 48 hours at 37° C. Each bacterium was suspended in phosphate buffered saline (PBS) to produce a suspension with optical density that matches 0.5 McFarland standard and diluted in brain heart infusion supplemented broth (for Bifidobacterium and Bacteroides) or in MRS broth (for Lactobacillus) to achieve bacterial concentration of approximately 5×10^5 CFU/ml. Bacteria were then seeded in 96-well plates containing serial dilutions of the compounds and incubated as mentioned previously for 48 hours.

Data set [3] has as its system Bifidobacterium breve JCP7499 HM 1120. Description: MIC against human normal gut microbiota. The conditions noted are these: JCP7499HM1120, Table 3, BHIS broth, anaerobic, 48 hours, read-out: MIC. The data set is classed as cell-based. The protocol:
as §1

The test system of data set [4] is Bacteroides dorei CL02T12C06 HM-719. Description: MIC against human normal gut microbiota. The conditions noted are these: Phocaeicola dorei; Table 3; BHIS broth, anaerobic, 48 hours; read-out: MIC. The data set is classed as cell-based. The protocol: as §1
In data set [5] the test system is VERO cells. Description: In vitro cytotoxicity, MTS assay. The conditions noted are these: concentration up to 128 μg/mL; two hours incubation. The data set is classed as cell-based, monkey. As to the method:
Toxicity assessment: Compounds AS005H, AS005J, AS004B, AS005K, AS005A and 005D were assayed (at concentrations of 64 and 128 μg/mL) against a fibroblast-like monkey kidney cell line (VERO cell) to determine the potential toxic effect in vitro. Briefly, cells were cultured in Minimum Essential Medium (MEM) supplemented with 10% fetal bovine serum (FBS), 1 mM sodium pyruvate, and penicillin-streptomycin at 37° C. with CO2 (5%). Control cells received DMSO alone at a concentration equal to that in drug-treated cell samples. The cells were incubated with the compounds (in triplicate) in a 96-well plate at 37° C. with CO2 (5%) for two hours. The assay reagent MTS 3-(4,5-dimethylthiazol-2-yl)-5-(3-carboxymethoxyphenyl)-2-(4-sulfophenyl)-2H-tetrazolium) (Promega, Madison, WI, USA) was subsequently added and the plate was incubated for four hours. Absorbance readings (at OD490) were taken using a kinetic microplate reader (Molecular Devices, Sunnyvale, CA, USA). The quantity of viable cells after treatment with each compound was expressed as a percentage of the viability of DMSO-treated control cells (average of triplicate wells±standard deviation). The toxicity data was analyzed via a two-way ANOVA, with post hoc Dunnet's multiple comparisons test (P<0.05), utilizing GraphPad Prism 6.0 (GraphPad Software, La Jolla, CA).
Percent viable mammalian cells (measured as average absorbance ratio (test agent relative to DMSO) for cytotoxicity analysis of compounds AS005H, AS005J, AS004B, AS005K, AS005A and 005D (tested in triplicates) at 64 and 128 μg/mL against VERO cells using the MTS 3-(4,5-dimethylthiazol-2-yl)-5-(3-carboxymethoxyphenyl)-2-(4-sulfophenyl)-2H-tetrazolium) assay. Dimethyl sulfoxide (DMSO) was used as a negative control to determine a baseline measurement for the cytotoxic impact of each compound. The absorbance values represent an average of a minimum of three samples analyzed for each compound. Error bars represent standard deviation values for the absorbance values.

For data set [6], the system named is Enterococcus faecalis S613 HM-334. Nature of the data set: MIC, broth microdilution (CLSI). The data set is classed as cell-based. The conditions noted are these: Enterococcus faecalis, read-out: MIC. As to the method: The minimum inhibitory concentrations (MICs) of the compounds and control drugs were determined using the broth microdilution method, according to guidelines outlined by the Clinical and Laboratory Standards Institute (CLSI). Enterococci strains were grown aerobically overnight on tryptone soya agar plates at 37° C., afterwards a bacterial solution equivalent to 0.5 McFarland standard was prepared and diluted in tryptone soy broth (TSB) to achieve a bacterial concentration of about 5×10^5 CFU/mL and seeded in 96-well well plates. Compounds and control drugs were added in the first row of the 96-well plates and serially diluted along the plates. Plates were then incubated aerobically at 37° C. for 18-20 hours. MICs reported in Table 1 are the minimum concentration of the compounds/control drugs that could inhibit completely the visual growth of the bacteria.
The minimum inhibitory concentrations (MICs) of CAIs were tested against clinical isolates of vancomycin sensitive and vancomycin resistant Enterococci strains as per the guidelines provided by the Clinical and Laboratory Standards Institute (CLSI). The selected strains of Enterococci were streaked on Tryptic Soy Agar (TSA) plates and let grow for 24 hours at 37° C. Afterwards, a bacterial solution equivalent to 0.5 McFarland standard was prepared and diluted in tryptone soy broth (TSB) or brain heart infusion broth (BHIB) to achieve a bacterial concentration of about 5×10^5 CFU/mL and seeded in 96-well well plates. Compounds and control drugs were added in the first row of the 96-well plates and serially diluted along the plates. Plates were then incubated aerobically at 37° C. for 18-20 hours. MICs reported in Table 5 are the minimum concentration of the compounds/control drugs that could inhibit completely the visual growth of the bacteria.
The minimum inhibitory concentrations (MICs) of CAIs were tested against vancomycin resistant Enterococcus faecalis—S613 HM 334 strain as per the guidelines provided by the Clinical and Laboratory Standards Institute (CLSI). The selected strain was streaked on Tryptic Soy Agar (TSA) plate and let grow for 24 hours at 37° C. […] Compounds and control drugs were added in the first row of the 96-well plates and serially diluted along the plates. Plates were then incubated aerobically at 37° C. for 18-20 hours. MICs reported in table (6) are the minimum concentration of the compounds/control drugs that could inhibit completely the visual growth of the bacteria.
(In general: Dilution methods test growth across graded concentrations, often in twofold steps.)

Data set [7] concerns vancomycin-resistant E. faecium. Nature of the data set: Mouse model of GI colonization by VRE. The data set is classed as in vivo, C57BL/6 mice. The source says:
Feasibility in vivo study: AZM reduces VRE load in the intestines and faeces. The promising feature, and the specific and potent antimicrobial activity of CAIs, prompted us to evaluate the in vivo efficacy of AZM in our established mouse model of GI colonization by enterococci with features that mimic the antibiotic-induced enterococcal expansion observed in humans (Mohammad, H. et al., Int J Antimicrob Agents 2018, 51, 897-904; Abdelkhalek, A, et al., PLoS One 2018, 13, e0199710). We tested AZM (two clinical doses 10 and 20 mg/kg) in female 12-week-old C57BL/6 mice (n=5 mice per group) that were sensitized with ampicillin ([…] in drinking water) for 7 days to reduce the microbiota present in the gastrointestinal tract and colonized with 10^8 CFU/mL of vancomycin-resistant E. faecium.
We thought that the rapid absorption of AZM from the gastrointestinal tract would limit their exposure time to VRE present in the gastrointestinal tract.
Mice were treated for 8 days with 10 mg/kg of drugs by oral gavage.

Data set [8] concerns E. faecium NR 31909. The conditions noted are these: oral 20 mg/kg daily for 4 days. The source says: Saline was used as a negative control. Mice were euthanized on day 5 and organs (liver, spleen and kidneys) were aseptically removed and homogenized, and viable VRE were enumerated by serial dilution and plating.
[9] abbreviates: S613HM334, Table 6, TSB in presence of 4% human serum albumin.

≈ marks a conversion by molar mass, not a printed value. Like-named read-outs stand apart in the source and are kept apart here. Some results are limits rather than exact numbers.

`CC(C)C(=O)Nc1nnc(S(N)(=O)=O)s1` [CAI0011, N-(5-Sulfamoyl-1,3,4-thiadiazol-2-yl)isobutyramide]: the “toxicity to Caco-2 cells (percent viable cells, MTS)” value in data set [1] is listed as “non-toxic”. Besides, the minimal inhibitory concentration (MIC) in data set [2] is greater than 64 µg/mL; in data set [3] it was greater than 64 µg/mL; in data set [4], greater than 64 µg/mL; in data set [6] (S613HM334, Table 1, TSB) it was 2 µg/mL (≈ 7.99 µM); in data set [6] (S613HM334, Table 7, TSB), 2 µg/mL (≈ 7.99 µM). For the same compound, the “toxicity to VERO cells (percent viable cells, MTS)” value in data set [5] was “non-toxic”.

Take `CC(=O)Nc1nnc(S(N)(=O)=O)s1` [Acetazolamide]: in data set [7] (10 mg/kg or 20 mg/kg once a day, feces as early as 3rd day), the “VRE in feces, cecal content and ileal content compared to control mice” value is “significant reduction”. Further, the “VRE reduction compared with linezolid” value in data set [7] (AZM 10 and 20 mg/kg, linezolid 10 mg/kg once daily for 8 days) is “outperformed linezolid”. Also, in data set [8], the “mice protected against a lethal dose (survival)” value worked out at 100%. Moreover, the “reduction of bacterial load in internal organs compared with linezolid” value in data set [8] (liver, spleen, kidneys on day 5) is reported as “superior to linezolid”. The MIC in data set [2] was greater than 64 µg/mL; in data set [3], greater than 64 µg/mL; in data set [4], greater than 64 µg/mL; in data set [6] (S613HM334, Table 1, TSB) it was 2 µg/mL (≈ 9 µM); in data set [6] (S613HM334, Table 5, BHIB), greater than 128 µg/mL; in data set [6] (S613HM334, Table 5, TSB), 2 µg/mL (≈ 9 µM). In addition, the MIC in data set [6] (setting [9]) is greater than 256 µg/mL; in data set [6] (S613HM334, Table 7, TSB), 2 µg/mL (≈ 9 µM).

Consider `CC(C)(C)C(=O)Nc1nnc(S(N)(=O)=O)s1` [CAI0010, N-(5-Sulfamoyl-1,3,4-thiadiazol-2-yl)pivalamide], for which the “toxicity to Caco-2 cells (percent viable cells, MTS)” value in data set [1] is listed as “non-toxic”. The minimum inhibitory concentration (MIC) was greater than 64 µg/mL in data set [2]; greater than 64 µg/mL in data set [3]; greater than 64 µg/mL in data set [4]; 0.5 µg/mL (≈ 1.89 µM) in data set [6] (S613HM334, Table 1, TSB); greater than 256 µg/mL in data set [6] (setting [9]); 0.125 µg/mL (≈ 0.473 µM) in data set [6] (S613HM334, Table 7, TSB). In addition, the “toxicity to VERO cells (percent viable cells, MTS)” value in data set [5] was “non-toxic”.
